{
  "source": "the NIST ThermoML archive (doi:10.1021/je700751a)",
  "assay": "osmotic coefficient (dimensionless); mn = molality of the nth substance listed, in mol/kg",
  "conditions": "Liquid, isopiestic method",
  "note": "± gives the expanded uncertainty stated by the source.",
  "data": [
    {"compound": "O=C([O-])[C@H](O)[C@@H](O)C(=O)[O-].[K+].[K+]", "note": "[dipotassium L-tartrate] + O", "values": [
      {"measurement": "osmotic coefficient", "setting": "298.15 K, m1 = 0", "result": "1 ± 0.001"},
      {"measurement": "osmotic coefficient", "setting": "298.15 K, m1 = 0.3635", "result": "0.713 ± 0.014"},
      {"measurement": "osmotic coefficient", "setting": "298.15 K, m1 = 0.604", "result": "0.683 ± 0.016"},
      {"measurement": "osmotic coefficient", "setting": "298.15 K, m1 = 0.7532", "result": "0.675 ± 0.016"},
      {"measurement": "osmotic coefficient", "setting": "298.15 K, m1 = 1.285", "result": "0.677 ± 0.016"},
      {"measurement": "osmotic coefficient", "setting": "298.15 K, m1 = 1.702", "result": "0.691 ± 0.015"},
      {"measurement": "osmotic coefficient", "setting": "298.15 K, m1 = 1.861", "result": "0.691 ± 0.015"},
      {"measurement": "osmotic coefficient", "setting": "298.15 K, m1 = 2.212", "result": "0.704 ± 0.015"},
      {"measurement": "osmotic coefficient", "setting": "298.15 K, m1 = 2.379", "result": "0.711 ± 0.014"},
      {"measurement": "osmotic coefficient", "setting": "298.15 K, m1 = 2.466", "result": "0.705 ± 0.015"},
      {"measurement": "osmotic coefficient", "setting": "298.15 K, m1 = 2.837", "result": "0.719 ± 0.014"},
      {"measurement": "osmotic coefficient", "setting": "298.15 K, m1 = 3.236", "result": "0.728 ± 0.014"},
      {"measurement": "osmotic coefficient", "setting": "298.15 K, m1 = 4.168", "result": "0.759 ± 0.012"},
      {"measurement": "osmotic coefficient", "setting": "298.15 K, m1 = 4.379", "result": "0.77 ± 0.01"},
      {"measurement": "osmotic coefficient", "setting": "298.15 K, m1 = 4.631", "result": "0.771 ± 0.011"},
      {"measurement": "osmotic coefficient", "setting": "298.15 K, m1 = 4.845", "result": "0.775 ± 0.011"},
      {"measurement": "osmotic coefficient", "setting": "298.15 K, m1 = 6.72", "result": "0.805 ± 0.01"},
      {"measurement": "osmotic coefficient", "setting": "298.15 K, m1 = 6.869", "result": "0.804 ± 0.01"},
      {"measurement": "osmotic coefficient", "setting": "308.15 K, m1 = 0", "result": "1 ± 0.001"},
      {"measurement": "osmotic coefficient", "setting": "308.15 K, m1 = 0.3282", "result": "0.721 ± 0.014"},
      {"measurement": "osmotic coefficient", "setting": "308.15 K, m1 = 0.7152", "result": "0.706 ± 0.015"},
      {"measurement": "osmotic coefficient", "setting": "308.15 K, m1 = 0.9198", "result": "0.702 ± 0.015"},
      {"measurement": "osmotic coefficient", "setting": "308.15 K, m1 = 1.135", "result": "0.692 ± 0.015"},
      {"measurement": "osmotic coefficient", "setting": "308.15 K, m1 = 1.327", "result": "0.694 ± 0.015"},
      {"measurement": "osmotic coefficient", "setting": "308.15 K, m1 = 1.854", "result": "0.705 ± 0.015"},
      {"measurement": "osmotic coefficient", "setting": "308.15 K, m1 = 2.215", "result": "0.712 ± 0.014"},
      {"measurement": "osmotic coefficient", "setting": "308.15 K, m1 = 2.842", "result": "0.725 ± 0.014"},
      {"measurement": "osmotic coefficient", "setting": "308.15 K, m1 = 3.585", "result": "0.751 ± 0.012"},
      {"measurement": "osmotic coefficient", "setting": "308.15 K, m1 = 4.177", "result": "0.764 ± 0.012"},
      {"measurement": "osmotic coefficient", "setting": "308.15 K, m1 = 5.047", "result": "0.78 ± 0.011"},
      {"measurement": "osmotic coefficient", "setting": "308.15 K, m1 = 5.836", "result": "0.793 ± 0.01"},
      {"measurement": "osmotic coefficient", "setting": "308.15 K, m1 = 6.435", "result": "0.806 ± 0.01"},
      {"measurement": "osmotic coefficient", "setting": "318.15 K, m1 = 0", "result": "1 ± 0.001"},
      {"measurement": "osmotic coefficient", "setting": "318.15 K, m1 = 0.2468", "result": "0.741 ± 0.013"},
      {"measurement": "osmotic coefficient", "setting": "318.15 K, m1 = 0.3446", "result": "0.745 ± 0.013"},
      {"measurement": "osmotic coefficient", "setting": "318.15 K, m1 = 0.5504", "result": "0.721 ± 0.014"},
      {"measurement": "osmotic coefficient", "setting": "318.15 K, m1 = 0.6181", "result": "0.712 ± 0.014"},
      {"measurement": "osmotic coefficient", "setting": "318.15 K, m1 = 0.9764", "result": "0.707 ± 0.015"},
      {"measurement": "osmotic coefficient", "setting": "318.15 K, m1 = 1.276", "result": "0.702 ± 0.015"},
      {"measurement": "osmotic coefficient", "setting": "318.15 K, m1 = 1.536", "result": "0.712 ± 0.014"},
      {"measurement": "osmotic coefficient", "setting": "318.15 K, m1 = 1.995", "result": "0.723 ± 0.014"},
      {"measurement": "osmotic coefficient", "setting": "318.15 K, m1 = 2.646", "result": "0.737 ± 0.013"},
      {"measurement": "osmotic coefficient", "setting": "318.15 K, m1 = 2.934", "result": "0.751 ± 0.012"},
      {"measurement": "osmotic coefficient", "setting": "318.15 K, m1 = 4.154", "result": "0.777 ± 0.011"},
      {"measurement": "osmotic coefficient", "setting": "318.15 K, m1 = 4.813", "result": "0.791 ± 0.01"},
      {"measurement": "osmotic coefficient", "setting": "318.15 K, m1 = 5.749", "result": "0.804 ± 0.01"}
    ]}
  ]
}
